Measured values as given in patent US20240228504A1, “SUBSTITUTED TRICYCLIC AMIDES, ANALOGUES THEREOF, AND METHODS USING SAME” (Arbutus Biopharma Corporation, priority 2020, published 2024).

System: HBV rcDNA in HepDE19 cells
Assay: HepDE19 assay with bDNA quantitation of HBV rcDNA
Assay type: cell-based, hepatitis B virus
Conditions: HepDE19 assay, inhibition of rcDNA formation, bDNA quantitation; read-out: DE-19bDNA EC50

SMILES	EC50 [nM]
CN(C(=O)c1cc2c(Cl)cc(F)cc2[nH]1)C1CNCc2[nH]c(=O)c3cc(F)c(F)cc3c21 (single isomer, unassigned) [Compound 461, 4-chloro-N-(8,9-difluoro-6-oxo-1,2,3,4,5,6-hexahydrobenzo[c][1,7]naphthyridin-1-yl)-6-fluoro-N-methyl-1H-indole-2-carboxamide]	30
CC(=O)N1Cc2[nH]c(=O)c3cc(F)c(F)cc3c2C(N(C)C(=O)c2cc3ccccc3[nH]2)C1 (single isomer, unassigned) [Compound 81, N-(3-Acetyl-8,9-difluoro-6-oxo-1,2,3,4,5,6-hexahydrobenzo[c][1,7]naphthyridin-1-yl)-N-methyl-1H-indole-2-carboxamide]	14000
CN(C(=O)c1cc2sc(F)cc2[nH]1)C1COCc2[nH]c(=O)c3cc(F)ccc3c21 (single isomer, unassigned) [Compound 498, 2-fluoro-N-(8-fluoro-6-oxo-1,4,5,6-tetrahydro-2H-pyrano[3,4-c]isoquinolin-1-yl)-N-methyl-4H-thieno[3,2-b]pyrrole-5-carboxamide]	80
CN(C(=O)c1cc2ccccc2[nH]1)[C@@H]1CCC(O)c2[nH]c(=O)c3cc(F)c(F)cc3c21 (single isomer, unassigned) [Compound 505]	50
CN(C(=O)c1cc2ccccc2[nH]1)C1CCCc2[nH]c(=O)c3cc(F)c(F)cc3c21 (single isomer, unassigned) [Compound 467, N-(8,9-Difluoro-6-oxo-1,2,3,4,5,6-hexahydrophenanthridin-1-yl)-N-methyl-1H-indole-2-carboxamide]	10
CN(C(=O)c1cc2c(Cl)cccc2[nH]1)C1COCc2[nH]c(=O)c3cc(F)ccc3c21 (single isomer, unassigned) [Compound 424, 4-Chloro-N-(8-fluoro-6-oxo-1,4,5,6-tetrahydro-2H-pyrano[3,4-c]isoquinolin-1-yl)-N-methyl-1H-indole-2-carboxamide]	510
CN(C(=O)c1cc(F)c(Cl)c(F)c1)C1COCc2[nH]c(=O)c3cc(F)ccc3c21 (single isomer, unassigned) [Compound 175, 4-Chloro-3,5-difluoro-N-(8-fluoro-6-oxo-2,4,5,6-tetrahydro-1H-pyrano[3,4-c]isoquinolin-1-yl)-N-methylbenzamide]	30
CN(C(=O)c1cc2cc(F)ccc2[nH]1)C1CNCc2[nH]c(=O)c3cc(F)c(F)cc3c21 (single isomer, unassigned) [Compound 101, N-(8,9-Difluoro-6-oxo-1,2,3,4,5,6-hexahydrobenzo[c][1,7]naphthyridin-1-yl)-5-fluoro-N-methyl-1H-indole-2-carboxamide]	10
CN(C(=O)c1cc2ccc(C(F)F)cn2c1)C1CNCc2[nH]c(=O)c3cc(F)c(F)cc3c21 (single isomer, unassigned) [Compound 387, N-(8,9-Difluoro-6-oxo-1,2,3,4,5,6-hexahydrobenzo[c][1,7]naphthyridin-1-yl)-6-(difluoromethyl)-N-methylindolizine-2-carboxamide]	11000
CN(C(=O)c1cc2cccc(F)c2[nH]1)C1CNCc2[nH]c(=O)c3cc(F)c(F)cc3c21 (single isomer, unassigned) [Compound 113, N-(8,9-Difluoro-6-oxo-1,2,3,4,5,6-hexahydrobenzo[c][1,7]naphthyridin-1-yl)-7-fluoro-N-methyl-1H-indole-2-carboxamide]	430
CN(C(=O)c1cc2c(F)cccn2c1)C1CNCc2[nH]c(=O)c3cc(F)c(F)cc3c21 (single isomer, unassigned) [Compound 160, N-(8,9-Difluoro-6-oxo-1,2,3,4,5,6-hexahydrobenzo[c][1,7]naphthyridin-1-yl)-8-fluoro-N-methylindolizine-2-carboxamide]	16200
CN(C(=O)c1cc2c([nH]1)CCC(F)(F)C2)C1COCc2[nH]c(=O)c3cc(F)c(F)cc3c21 (single isomer, unassigned) [Compound 47, N-(8,9-Difluoro-6-oxo-1,4,5,6-tetrahydro-2H-pyrano[3,4-c]isoquinolin-1-yl)-5,5-difluoro-N-methyl-4,5,6,7-tetrahydro-1H-indole-2-carboxamide]	20
CN(C(=O)c1cc2c(C(F)F)c(F)ccc2[nH]1)C1CNCc2[nH]c(=O)c3cc(F)ccc3c21 (single isomer, unassigned) [Compound 271, 4-(Difluoromethyl)-5-fluoro-N-(8-fluoro-6-oxo-1,2,3,4,5,6-hexahydrobenzo[c][1,7]naphthyridin-1-yl)-N-methyl-1H-indole-2-carboxamide]	6700
CN(C(=O)c1cc2ccc(F)cc2[nH]1)C1COCc2[nH]c(=O)c3cc(F)c(F)cc3c21 (single isomer, unassigned) [Compound 25, N-(8,9-Difluoro-6-oxo-1,4,5,6-tetrahydro-2H-pyrano[3,4-c]isoquinolin-1-yl)-6-fluoro-N-methyl-1H-indole-2-carboxamide]	820

Same assay, conditions: Hepatitis B virus, HepDE19, HepDE19 assay, inhibition of rcDNA formation, bDNA quantitation; read-out: DE-19bDNA EC50

SMILES	EC50 [nM]
CN(C(=O)c1ccc(-c2cc(F)cc(F)c2)cc1)[C@@H]1COCc2[nH]c(=O)c3cc(F)c(F)cc3c21 [Compound 286, (S)-N-(8,9-Difluoro-6-oxo-1,4,5,6-tetrahydro-2H-pyrano[3,4-c]isoquinolin-1-yl)-3′,5′-difluoro-N-methyl-[1,1′-biphenyl]-4-carboxamide]	12900
CN(C(=O)c1c[nH]c(=O)c(Br)c1)[C@@H]1COCc2[nH]c(=O)c3cc(F)c(F)cc3c21 [Compound 205, (S)-5-Bromo-N-(8,9-difluoro-6-oxo-1,4,5,6-tetrahydro-2H-pyrano[3,4-c]isoquinolin-1-yl)-N-methyl-6-oxo-1,6-dihydropyridine-3-carboxamide]	15800
CN(C(=O)c1c[nH]c(=O)c(F)c1)[C@@H]1COCc2[nH]c(=O)c3cc(F)c(F)cc3c21 [Compound 226, (S)-N-(8,9-Difluoro-6-oxo-1,4,5,6-tetrahydro-2H-pyrano[3,4-c]isoquinolin-1-yl)-5-fluoro-N-methyl-6-oxo-1,6-dihydropyridine-3-carboxamide]	12500
CN(C(=O)c1cccc(NS(C)(=O)=O)c1)[C@@H]1COCc2[nH]c(=O)c3cc(F)c(F)cc3c21 [Compound 297, (S)-N-(8,9-Difluoro-6-oxo-1,4,5,6-tetrahydro-2H-pyrano[3,4-c]isoquinolin-1-yl)-N-methyl-3-(methylsulfonamido)benzamide]	21000
CN(C(=O)c1ccc2nccn2c1)[C@@H]1COCc2[nH]c(=O)c3cc(F)c(F)cc3c21 [Compound 306, (S)-N-(8,9-Difluoro-6-oxo-1,4,5,6-tetrahydro-2H-pyrano[3,4-c]isoquinolin-1-yl)-N-methylimidazo[1,2-a]pyridine-6-carboxamide]	420
CN(C(=O)c1cc2cc(F)c(F)cc2[nH]1)[C@H]1COCc2[nH]c(=O)c3cc(F)c(F)cc3c21 [Compound 41, N-(8,9-difluoro-6-oxo-1,4,5,6-tetrahydro-2H-pyrano[3,4-c]isoquinolin-1-yl)-5,6-difluoro-N-methyl-1H-indole-2-carboxamide]	2200
CN(C(=O)c1cc2ccccc2[nH]1)C1CN(CCO)Cc2[nH]c(=O)c3cc(F)ccc3c21 (single isomer, unassigned) [Compound 79, N-(8-Fluoro-3-(2-hydroxyethyl)-6-oxo-1,2,3,4,5,6-hexahydrobenzo[c][1,7]naphthyridin-1-yl)-N-methyl-1H-indole-2-carboxamide]	10000
CN(C(=O)c1cc2cc(Br)ncc2[nH]1)[C@@H]1COCc2[nH]c(=O)c3cc(F)c(F)cc3c21 [Compound 213, (S)-5-Bromo-N-(8,9-difluoro-6-oxo-1,4,5,6-tetrahydro-2H-pyrano[3,4-c]isoquinolin-1-yl)-N-methyl-1H-pyrrolo[2,3-c]pyridine-2-carboxamide]	80
CN(C(=O)c1cc2cc(F)c(F)cc2[nH]1)[C@@H]1COC(=O)c2[nH]c(=O)c3cc(F)c(F)cc3c21 [Compound 321, (S)-N-(8,9-Difluoro-4,6-dioxo-1,4,5,6-tetrahydro-2H-pyrano[3,4-c]isoquinolin-1-yl)-5,6-difluoro-N-methyl-1H-indole-2-carboxamide]	10
CN(C(=O)c1cc2cc(F)c(C(F)F)cc2[nH]1)[C@@H]1CCCc2[nH]c(=O)c3cc(F)c(F)cc3c21 [Compound 482, (R)-N-(8,9-difluoro-6-oxo-1,2,3,4,5,6-hexahydrophenanthridin-1-yl)-6-(difluoromethyl)-5-fluoro-N-methyl-1H-indole-2-carboxamide]	10
CN(C(=O)c1ccc(Br)c(F)c1F)[C@@H]1COCc2[nH]c(=O)c3cc(F)c(F)cc3c21 [Compound 244, (S)-4-Bromo-N-(8,9-difluoro-6-oxo-1,4,5,6-tetrahydro-2H-pyrano[3,4-c]isoquinolin-1-yl)-2,3-difluoro-N-methylbenzamide]	80
CN(C(=O)c1cc2cc(C#N)ccc2[nH]1)C1CNCc2[nH]c(=O)c3cc(F)c(F)cc3c21 (single isomer, unassigned) [Compound 406, 5-Cyano-N-(8,9-difluoro-6-oxo-1,2,3,4,5,6-hexahydrobenzo[c][1,7]naphthyridin-1-yl)-N-methyl-1H-indole-2-carboxamide]	190
CN(C(=O)c1cc2cc(F)ccn2c1)[C@@H]1COCc2[nH]c(=O)c3cc(F)c(F)cc3c21 [Compound 231, (S)-N-(8,9-Difluoro-6-oxo-1,4,5,6-tetrahydro-2H-pyrano[3,4-c]isoquinolin-1-yl)-7-fluoro-N-methylindolizine-2-carboxamide]	10
CN(C(=O)c1cc2cccnn2c1)[C@@H]1COCc2[nH]c(=O)c3cc(F)c(F)cc3c21 [Compound 65, (S)-N-(8,9-Difluoro-6-oxo-1,4,5,6-tetrahydro-2H-pyrano[3,4-c]isoquinolin-1-yl)-N-methylpyrrolo[1,2-b]pyridazine-6-carboxamide]	150
CN(C(=O)c1cc2ccc(C(F)F)cn2c1)[C@@H]1COCc2[nH]c(=O)c3cc(F)c(F)cc3c21 [Compound 375, (S)-N-(8,9-Difluoro-6-oxo-1,4,5,6-tetrahydro-2H-pyrano[3,4-c]isoquinolin-1-yl)-6-(difluoromethyl)-N-methylindolizine-2-carboxamide]	330
